Measured values reported in patent publication US20240336573A1, “COMPOUND FOR THE TREATMENT AND PROPHYLAXIS OF INFECTIOUS DISEASES” (Eberhard Karls Universität Tübingen Medizinische Fakultät, priority 2021, published 2024).
Where two headings read alike, the source gives them in different places.

Tests used:
[1] = molecular target: T1, SurA (Escherichia coli, UniProt P0ABZ6); assay: Microscale thermophoresis at the ELF (O1); format: binding, E. coli; parameters: key to MST score: 1 = binder; 6 = non-binder; settings: for MST score: score 1-6
Method: (§1) His-tagged SurA was labeled with the Monolith His-Tag Labeling Kit RED-tris-NTA (Nanotemper) according to the manufacturer's instructions.
Microscale thermophoresis measurements at the ELF were performed as follows. Compounds were tested in 8-point curves at a top starting concentration of 100-0.39 μM. […] 12-point dose responses of reference compound were also set up and tested between runs. Final measurement conditions were 40 mM HEPES pH 7.4, 0.1% Pluronic-F127, 50 nM SurA with Monolith settings—40% excitation and 60% MST power. MST data (capillary scan and shape, initial fluorescence and MST traces) were analyzed and a score was given to each compound.

[2] = molecular target: T1, SurA; assay: nanoDSF of QHL compounds (Tycho); format: binding, E. coli; parameters: key: An increase of the inflection points in the nanoDSF experiments is indicated by (+); a decrease by (−); no changes with (none); ambiguity with a question mark (?); settings: re-evaluation; 100 μM compound, 2 μM SurA, 40 mM HEPES pH 7.4
Method: Nano Differential Scanning Fluorimetry (nanoDSF) measurements of the QHL (qualified hit list) compounds provided by the ELF were performed on a Tycho system (NanoTemper).

[3] = molecular target: T1, SurA; assay: Microscale thermophoresis (Tuebingen, Monolith NT.115); format: binding, E. coli; settings: for MST score (Re-evaluation Tuebingen): re-evaluation of QHL compound remainders
Method: as §1
Microscale thermophoresis measurements were performed in 40 mM HEPES pH 7.4, 0.05% Tween-20 at 25° C. with a Monolith NT.115 (NanoTemper) in standard capillaries.

[4] = molecular target: T1, SurA; assay: Luciferase-based SurA activity assay (primary assay, in-house); format: biochemical, E. coli; parameters: key to primary assay SurA: SurA inhibition = +; no SurA inhibition = 0; settings: for primary assay SurA: shelf derivatives evaluation
Description: The biological function of SurA is to bind and to keep outer membrane proteins that have reached the periplasm in an unfolded but folding-competent state. The inventors' assay is based on this interaction and uses firefly Luciferase (fLuc) as a non-native substrate. […] This is exploited in the assay (FIG. 3). The loss of tertiary structure of fLuc leads to the exposure of binding sites for SurA. It is known that SurA binds selectively to a special group of substrates. These substrates have in common the specific patterns of hydrophobic amino acids that are highly enriched in the beta strands of integral outer membrane proteins. These motifs are present in OMPs of all Gram-negative bacteria and in fLuc as well. Upon mild heat treatment of fLuc and its subsequent partial unfolding, fLuc is accepted as a substrate by SurA. Of note, these intermediates served as reporter substrates to determine the activity of a […] folding chaperone. […] This interaction remains stable upon temperature reduction. Next, the temperature of the assay is reduced to room temperature and luciferase activity is subsequently measured by addition of Luciferin and ATP. In conditions without SurA, fLuc will refold into its active conformation resulting in a luminescence signal.
In short, the Luciferase based SurA activity assay was performed in SurA Activity Assay Buffer (40 mM HEPES pH 7.4, 20 mM MgSO4, 0.5 g/I BSA). SurA aliquots were thawn at RT, activated by mild heat treatment and cooled down to RT for 10 min. […] Solution A containing 10 mM ATP as well as 0.3 mM Luciferin (Promega Beetle Luciferin, Potassium Salt) in water was prepared. Luciferase working solution was prepared by diluting 1 ml Luciferase working stock (100 nM) with 9 ml assay buffer. 33 μl of the protein solution were added to every 2nd row of a well of a 384-well PS, white, flat bottom plate. […] Subsequently, 2 μl of compound in DMSO were added in quadruplicates (4 wells each of protein solution and buffer controls). These compound solutions could contain either various compounds or different dilutions of the same compound allowing screening inhibitor activity in a dose dependent manner. After compound addition, plates were incubated 15 min at RT. After this incubation, 5 μl of Luciferase working solution were added to each well. Next, the plates were incubated 25 min at 38° C. to partially unfold the Luciferase. Subsequently, the assay plate was cooled for 5 min at 4° C. followed by 10 min incubation at RT prior to luminescence measurement. Luminescence was measured in a TECAN infinite M200 pro plate reader for each well individually after injection of 10 μl Solution A.

[5] = molecular target: T1, SurA; assay: nanoDSF thermal shift assay (Prometheus); format: binding, E. coli; parameters: key to nanoDSF pH 5 Ti#1 / nanoDSF pH 5 Ti#2 / nanoDSF pH 7.4 Ti#1 / nanoDSF pH 7.4 Ti#2: An increase of the inflection points in the nanoDSF experiments is indicated by (+); a decrease by (−); no changes with (none); ambiguity with a question mark (?); settings: for nanoDSF pH 7.4 Ti#1 / nanoDSF pH 7.4 Ti#2: 40 mM HEPES pH 7.4, 150 NaCl; for nanoDSF pH 5 Ti#1 / nanoDSF pH 5 Ti#2: 50 mM HAc pH 5; for Thermal stability of SurA as detected by nanoDSF: resynthesized compounds
Method: To this end, 5 μl of a 2 mM compound solution in DMSO were mixed with 95 μl of a 20 μM SurA solution. Technical triplicate measurements were performed on a Prometheus system (NanoTemper).

[6] = tested on: HepG2 cells; assay: Cytotoxicity assay (LDH release); format: cell-based; settings: 500 μM compound, 1 h at 37° C., some cells also say precipitate
Method: Cell cytotoxicity of shelf derivatives was evaluated monitoring the LDH release from HepG2 cells using the CytoTox 96@ Non-Radio Cytotoxicity Assay (Promega) according to the manufacturer's instructions. […] After incubation, 25 μl were transferred into a fresh 96-well flat clear bottom plate and mixed with 25 μl CytoTox 96@ Reagent. LDH release reactions were incubated 30 min at RT in the dark and 25 μl Stop Solution were added. LDH release was measured at 490 nm in a multiplate reader.

T1 sequence (P0ABZ6 21-428): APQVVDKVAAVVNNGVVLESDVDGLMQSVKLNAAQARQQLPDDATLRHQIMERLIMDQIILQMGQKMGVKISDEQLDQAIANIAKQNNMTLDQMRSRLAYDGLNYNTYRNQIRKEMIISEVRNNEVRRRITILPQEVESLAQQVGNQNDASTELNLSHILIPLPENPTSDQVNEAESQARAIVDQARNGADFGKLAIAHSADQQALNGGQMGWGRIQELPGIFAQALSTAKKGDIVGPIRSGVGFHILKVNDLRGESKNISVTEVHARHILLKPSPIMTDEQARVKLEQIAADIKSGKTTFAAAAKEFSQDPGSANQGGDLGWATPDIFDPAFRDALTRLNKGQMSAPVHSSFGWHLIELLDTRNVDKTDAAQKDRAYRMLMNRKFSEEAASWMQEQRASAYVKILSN

Row | SMILES | MST score [1] | nanoDSF(Tycho) Ti#1 [2] | nanoDSF(Tycho) Ti#2 [2] | MST score (Re-evaluation Tuebingen) [3] | Kd ([3]; read-out: MST (Kd in mM)) [mM] | MST (KD) ([3]; resynthesized compounds) | Kd ([3]; resynthesized compounds, read-out: MST (KD)) [mM] | primary assay SurA [4] | nanoDSF pH 7.4 Ti#1 [5] | nanoDSF pH 7.4 Ti#2 [5] | nanoDSF pH 5 Ti#1 [5] | nanoDSF pH 5 Ti#2 [5] | Thermal stability of SurA as detected by nanoDSF [5] | CytoTox [6] | IC50 ([1]; 8-point curves 100-0.39 μM, 50 nM SurA, read-out: MST pIC50 (converted)) [µM] | MST (Kd in mM) [3] | Primary Assay ICmax ([4]; QHL-10 derivatives, dose response up to 125 μM, n/d: no signal detected) [µM] | Primary Assay Amplitude ([4]; amplitude of signal, n/d: no signal detected)
1 | CN(C)c1ccc(-c2nc3cc(NC(=O)Cn4cc5ccccc5n4)ccc3[nH]2)cc1 [QHL-24] | 1 | none | + | inconclusive | 0.02 to 0.03 | binding | 0.02 to 0.03 | + | none | − | none | + | affected the thermal stability of SurA | precipitate (7.87%) |  |  |  | 
2 | NC(=O)c1nc(Cc2ccc(OCC(=O)O)cc2)[nH]c1NC(=O)c1ccc(-c2ccccc2)cc1 [Compound 2a, 2-(4-((5-([1,1′-biphenyl]-4-carboxamido)-4-carbamoyl-1H-imidazol-2-yl)methyl)phenoxy)acetic acid] | 1 | ? | + | 2 |  | binding |  | + | none | − | + | − | affected the thermal stability of SurA | 50.23% | 39.8 | binding | 4 | high
